From patent US8735439B2, “Chlorin e6-folic acid conjugate, preparation method thereof, and a pharmaceutical composition for the treatment of cancer comprising the same” (Diatech Korea Co., Ltd., priority 2009, dated 2014)

Key:
[1] = Spectral and fluorescent parameters of chlorin e6 conjugate in different systems; assay type: physicochemical
Experimental: Pigment-protein complexes have been formed by adding to the solution of human serum albumin (HAS) a specific amount of photosensitizer dissolved in the same buffer. […] Similarly, the photosensitizer was included in detergent micelle (Triton X-100, C=10^−3M).
The electronic absorption spectra of the subject solution were recorded on Specord UV-Vis. The fluorescence spectra and value of degree of fluorescence polarization (P) were recorded on an automatic spectrofluorimeter (Institute of Physics). Life time of photosensitizer fluorescence (ts) was estimated using an impulse fluorometer operating in the mode of photons counting.
The main feature of the absorption spectrum is intensive (ε=4.8 10^4 M^−1 cm^−1) Qx (0-0) band at 660 nm, which falls into the spectral window of the majority of biological tissues.
Complex formation of chlorin e6 conjugate, and HSA, liposomes or detergent micelles leads to bathochromic shift in the absorption and fluorescence spectra of pigment. However, an increase in fluorescence photoresponse (B) was observed, which correlates with the growth of life time (ts) without changing of the Kravec integral value.

[2] = Photophysical parameters (triplet state, intercombinative conversion) of chlorin e6 conjugate; assay type: physicochemical
Experimental: Values of Δ ? and Δ ? were determined after substantially transferring of all molecules of the studied substance in excited triplet state. In such conditions, ΔD=CΔεTl, wherein C indicates the molar concentration of the substance in solution, and l indicates the length of the optical way. As the standard to estimate γ, Pd(II)-octa ethyl porphyrin (Pd (II)-OEP) was selected, for which the γ value in benzol was considered as equal to one.

Hela cells [3] = assay: Accumulation in Hela cells; assay type: cell-based; details: for concentration in Hela cells: 2×10^−5 M/l, 37° C.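 On concentration in Hela cells: measured as suspension fluorescence intensity at excitation 405 nm and emission 665 nm.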
Experimental: The cellular accumulation and the targeted delivery of the photoactive compounds were investigated using Hela cells, which is one of the numerous tumor cell types that overexpress folate receptors.
Cells were cultivated for 3 days in medium 199, and transferred to Hank's solution/medium 199 (9/1). After 3 hours, the cell were collected by trypsin treatment from the substrate and placed in Hank's solution (10^5 ? /ml). To cell suspensions, chlorin e6 conjugates were added at a concentration of 2×10^−5 M/l, and incubated at 37° C. After 1, 5, 10, 15, and 24 hours, the samples were centrifuged, the pellet was washed with the cooled Hank's solution, and transferred to Hank's solution at a concentration being equal to that in the initial suspension.

Hela cells [4] = assay: Competition assay with exogenous folic acid, uptake in Hela cells; assay type: cell-based; details: 4 μM/l folic acid, 24 hours
From the text: Then, the sample was centrifuged, the supernatant was taken, and the pellet was rewashed with cooled Hank's solution. The obtained pellet was again transferred into Hank's solution.

HeLa cell culture = assay: Phototoxicity (photodynamic activity), 3.5 h incubation, 3.3 joule/cm^2; assay type: cell-based; parameters: number of HELA cells relative to the control: unit not given here; details: photoexposure 3.3 joule/cm^2; for number of HELA cells relative to the control: 3.5 hours incubation
Experimental: To examine the photodynamic effects of a photosensitizer on a HeLa cell culture, the photosensitizer solution was added to the nutrient media at a final concentration of 0.1, 0.5, 1.0, 5.0 or 10 mcg/ml on day 3 after transplanting the cell culture into flasks. The flasks were wrapped with a light protecting cover, and incubated at 37° C. for 3.5 hours. Then, the cells were washed with Hank's solution, and exposed on ice by a laser medical device “LD 680-2000” (wavelength: 670-690 nm) at a dose of 3.3 joule/cm^2. After 20-24 hours, the available cell monolayer was dispersed using a 0.02%-Versene solution, and the number of tumor cells was calculated in Goriaev's chamber. For each point, 3 flasks were used.

sarcoma M-1 = assay: Accumulation kinetics of photosensitizer in rats with sarcoma M-1; assay type: in vivo; details: rats with sarcoma M-1, 5.0 mg/kg
Experimental: The experiments were conducted on 100 white outbred rats with subcutaneous transplantation of sarcoma M-1, 7-9 days after tumor transplant. Photosensitizers were introduced to the animals via an intravenous route, once at a dose of 2.5, 5.0 and 10.0 mg/kg in a room with a low level of light. A sterile isotonic solution of sodium chloride was used as a solvent. Follow up over the dynamics of photosensitizer accumulation in tumor and normal tissues was conducted at 30 mins, 1-5 hours, and 1-6 days after photosensitizer administration.
In tumor tissues of rats with sarcoma M-1 and normal tissues (skin of opposite haunch), the dynamics of photosensitizer accumulation was analyzed by the method of measurement of life time using computer fluorescent spectrophotometry. For this purpose, a laser-fiber spectroanalyzer “LESA-6” with a helium-neon diagnostic laser “LHN 633-25” (BIOSPEC, Moscow) was used. This allows an estimate locally of the level of photosensitizer accumulation in any organs and tissues accessible for an optical fiber probe.
For real time monitoring at every hour after administration of the drug, the distal end of a catheter was placed over the tumor and normal tissues, and the intensity of the drug accumulation was recorded on the wave length corresponding to maximum fluorescence. […]

For “[γ-(6-aminohexyl)folic acid]-chlorin e6 [chlorin e6 conjugate]”, the “l^00abs” value ([1]; Dimethyl sulfoxide) was 661 Nm, the “l^00fl” value ([1]; Dimethyl sulfoxide) was 672 nm and the “tS (life time of fluorescence)” value ([1]; Dimethyl sulfoxide) was 4.6 ns. The “B (fluorescence photoresponse)” value ([1]; H2O, pH 8.1) was 0.16, the “l^00abs” value ([1]; H2O, pH 8.1) was 657 Nm and the “l^00fl” value ([1]; H2O, pH 8.1) was 664 nm. The “tS (life time of fluorescence)” value ([1]; H2O, pH 8.1) was 4.3 ns, the “B (fluorescence photoresponse)” value ([1]; HSA, pH 8.1) was 0.18 and the “l^00abs” value ([1]; HSA, pH 8.1) was 664 Nm. The “l^00fl” value ([1]; HSA, pH 8.1) was 669 nm, the “tS (life time of fluorescence)” value ([1]; HSA, pH 8.1) was 5.2 ns and the “B (fluorescence photoresponse)” value ([1]; Liposomes, pH 8.1) was 0.21. For the same substance, the “l^00abs” value ([1]; Liposomes, pH 8.1) was 665 Nm, the “l^00fl” value ([1]; Liposomes, pH 8.1) was 670 nm and the “tS (life time of fluorescence)” value ([1]; Liposomes, pH 8.1) was 5.4 ns. For the same substance, the “l^00abs” value ([1]; Methanol) was 662 Nm, the “l^00fl” value ([1]; Methanol) was 667 nm and the “tS (life time of fluorescence)” value ([1]; Methanol) was 4.8 ns. For the same substance, the “B (fluorescence photoresponse)” value ([1]; Pyridine) was 0.18, the “l^00abs” value ([1]; Pyridine) was 666 Nm and the “l^00fl” value ([1]; Pyridine) was 673 nm. For the same substance, the “tS (life time of fluorescence)” value ([1]; Pyridine) was 5.0 ns, the “l^00abs” value ([1]; Tetrahydrofuran) was 667 Nm and the “tS (life time of fluorescence)” value ([1]; Tetrahydrofuran) was 5.0 ns. The “B (fluorescence photoresponse)” value ([1]; Triton X-100, pH 8.1) was 0.19, the “l^00abs” value ([1]; Triton X-100, pH 8.1) was 665 Nm and the “l^00fl” value ([1]; Triton X-100, pH 8.1) was 670 nm. For the same substance, the “tS (life time of fluorescence)” value ([1]; Triton X-100, pH 8.1) was 5.7 ns, the “P (degree of fluorescence polarization)” value ([1]; in liposomes) was 0.13 and the “Δε^T” value ([2]; H2O, pH 8.1) was 278 dm^3 mol^−1 cm^−1. For the same substance, the “γ (photoresponse of intercombinative conversion)” value ([2]; H2O, pH 8.1) was 0.8, the “τt (triplet lifetime, oxygen saturated)” value ([2]; H2O, pH 8.1) was 2.5 μs and the “τt^0 (triplet lifetime, deoxygenated)” value ([2]; H2O, pH 8.1) was 170 μs. For the same substance, the “Δε^T” value ([2]; HSA, H2O, pH 8.1) was 798 dm^3 mol^−1 cm^−1, the “γ (photoresponse of intercombinative conversion)” value ([2]; HSA, H2O, pH 8.1) was 0.82 and the “τt (triplet lifetime, oxygen saturated)” value ([2]; HSA, H2O, pH 8.1) was 14.7 μs. The “τt^0 (triplet lifetime, deoxygenated)” value ([2]; HSA, H2O, pH 8.1) was 700 μs, the “Δε^T” value ([2]; Liposomes, H2O, pH 8.1) was 251 dm^3 mol^−1 cm^−1 and the γ (photoresponse of intercombinative conversion) ([2]; Liposomes, H2O, pH 8.1) was 0.78. The “τt (triplet lifetime, oxygen saturated)” value ([2]; Liposomes, H2O, pH 8.1) was 1.4 μs, the “τt^0 (triplet lifetime, deoxygenated)” value ([2]; Liposomes, H2O, pH 8.1) was 70 μs and the “Δε^T” value ([2]; Pyridine) was 94 dm^3 mol^−1 cm^−1. The “γ (photoresponse of intercombinative conversion)” value ([2]; Pyridine) was 0.81, the “τt (triplet lifetime, oxygen saturated)” value ([2]; Pyridine) was 0.3 μs and the “τt^0 (triplet lifetime, deoxygenated)” value ([2]; Pyridine) was 140 μs. The “τt (triplet lifetime, oxygen saturated)” value ([2]; Triton X-100) was 2.6 μs, the “τt^0 (triplet lifetime, deoxygenated)” value ([2]; Triton X-100) was 230 μs and the “γ (photoresponse of intercombinative conversion)” value ([2]; practically similar in all the systems) was “≈ 0.7”. The “binding with cells over time” value (Hela cells [3]; Hela cells) was “increases linearly over 20 hours”, the “accumulation compared with cellular uptake of free chlorin e6” value (Hela cells [3]; Hela cells, after 6 hr incubation) was “distinctly higher” and the “cellular uptake relative to free chlorin e6” value (Hela cells [3]; Hela cells, after 24 hr incubation, on average, listed as chlorin e6-folic acid conjugate) was “about 10 fold”. The “concentration in Hela cells” value (Hela cells [3]; incubation 1 hour) was 0.40 relative units/10^4 cl, the “concentration in Hela cells” value (Hela cells [3]; incubation 5 hours) was 1.80 relative units/10^4 cl and the “concentration in Hela cells” value (Hela cells [3]; incubation 10 hours) was 2.50 relative units/10^4 cl. For the same substance, the “concentration in Hela cells” value (Hela cells [3]; incubation 15 hours) was 12.5 relative units/10^4 cl, the “concentration in Hela cells” value (Hela cells [3]; incubation 24 hours) was 15.0 relative units/10^4 cl and the “effect of free folic acid on uptake in Hela cells” value (Hela cells [4]) was “significantly reduced the uptake”. For the same substance, the “number of HELA cells relative to the control” value (HeLa cell culture; 0.1 mcg/ml) was 65.1, the “number of HELA cells relative to the control” value (HeLa cell culture; 0.5 mcg/ml) was 42.3 and the “number of HELA cells relative to the control” value (HeLa cell culture; 1.0 mcg/ml) was 12.6. The “inhibition of proliferation of Hela cells” value (HeLa cell culture; 5-10 mcg/ml) was “fully inhibited the proliferation”, the “number of HELA cells relative to the control” value (HeLa cell culture; 5.0 mcg/ml) was 0.1 and the “time of maximum accumulation in tumor tissue” value (sarcoma M-1) was 2 to 5 h.
